These results are taken from patent US8163737B2 (Vertex Pharmaceuticals Incorporated, priority 2006, dated 2012).

The target in test [1] is endogenous CGRP receptor (Homo sapiens, UniProt O60894+Q16602). Description: CGRP functional antagonism using SK-N-MC-BLA (4C10), β-lactamase transcriptional reporter assay. The note with it: SK-N-MC (4C10) cells, inhibition of β-lactamase expression in the presence of 200 pM CGRP. The class given is cell-based. On the technique in general: A reporter such as luciferase makes a cellular process visible.
Chain of endogenous CGRP receptor (Q16602 23-461): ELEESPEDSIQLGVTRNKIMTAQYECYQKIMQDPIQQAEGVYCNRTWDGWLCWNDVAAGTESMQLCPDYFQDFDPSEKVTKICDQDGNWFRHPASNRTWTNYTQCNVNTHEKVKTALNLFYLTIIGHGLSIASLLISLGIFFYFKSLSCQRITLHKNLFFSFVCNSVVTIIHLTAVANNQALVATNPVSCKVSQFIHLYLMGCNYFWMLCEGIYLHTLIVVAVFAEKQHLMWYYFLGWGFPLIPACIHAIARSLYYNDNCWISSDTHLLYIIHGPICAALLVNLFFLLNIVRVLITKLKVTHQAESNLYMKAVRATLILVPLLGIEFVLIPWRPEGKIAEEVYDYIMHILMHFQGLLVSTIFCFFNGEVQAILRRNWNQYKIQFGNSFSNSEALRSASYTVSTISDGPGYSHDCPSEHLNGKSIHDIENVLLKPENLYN
Chain of endogenous CGRP receptor (O60894 27-148): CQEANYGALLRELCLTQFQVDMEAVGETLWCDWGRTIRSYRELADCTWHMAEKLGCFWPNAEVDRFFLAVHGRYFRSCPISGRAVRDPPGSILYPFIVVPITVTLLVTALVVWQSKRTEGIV

In test [2] the target is T1, CGRP receptor (SK-N-MC membrane) (Homo sapiens, UniProt O60894+Q16602).
T1 construct: Purified SK-N-MC membrane was purchased from Perkin Elmer; purchased Perkin Elmer; host or cells: SK-N-MC membrane
T1 sequence (Q16602 23-461): as the sequence (Q16602 23-461) above
T1 sequence (O60894 27-148): as the sequence (O60894 27-148) above
Description: I125-CGRP binding displacement assay on purified SK-N-MC membrane. The essentials: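 Human SK-N-MC membranes incubated with compounds and I125-CGRP for 2 h at room temperature in 25 mM Tris-HCl pH 7.4, 5 mM MgCl2, 0.1% BSA, 0.05% Tween, then filtered and counted. Nonspecific binding defined with 1 uM unlabelled CGRP; percent displacement fitted to curves.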

By IC50 is commonly meant the midpoint of a concentration-inhibition curve. The Ki is a dissociation constant, usually derived from enzyme kinetics or from competition with a known ligand. High values mean lower affinity, low ones higher affinity. For `O=C(CC1SC(c2ccccc2)N(c2ccc3[nH]ncc3c2)C1=O)N1CCC(N2Cc3ccccc3NC2=O)CC1` (stereo not drawn) [Compound 287], the IC50 in test [1] was 1000 to 5000 nM. This molecule also came in with a Ki in test [2] of 1000 to 5000 nM.
With `CC(C)(C)CCN1C(=O)[C@H](CC(=O)N2CCC(N3CCc4ccccc4NC3=O)CC2)SC1c1cnc(C2CCNCC2)s1` (stereo partly drawn) [Compound 497, (5S)-3-(3,3-Dimethylbutyl)-5-(2-oxo-2-(4-(2-oxo-4,5-dihydro-1H-benzo[d][1,3]diazepin-3(2H)-yl)piperidin-1-yl)ethyl)-2-(2-(piperidin-4-yl)thiazol-5-yl)thiazolidin-4-one], the IC50 in test [1] is < 1000 nM. Also, the Ki in test [2] is < 1000 nM.
Regarding `COc1ccc(C2SC(CC(=O)N3CCC(n4cc(-c5ccccc5)[nH]c4=O)CC3)C(=O)N2CCC(C)C)cc1` (stereo not drawn) [Compound 286], in test [1], the IC50 lay in the range of 1000 to 5000 nM. The Ki in test [2] was > 5000 nM.
The corresponding values for `CC(C)CCN1C(=O)C(CC(=O)N2CCC(N3Cc4ccccc4NC3=O)CC2)SC1c1ccccc1Br` (stereo not drawn) [Compound 268] are < 1000 nM and < 1000 nM.
In the same order, the values of `CC(C)N1CCN(c2cccc(Cl)c2[C@H]2S[C@H](CC(=O)N3CCC(N4CCc5ccccc5NC4=O)CC3)C(=O)N2CCC(C)(C)C)CC1` [Compound 434] are < 1000 nM and < 1000 nM.
In the same order, the values of `CC(C)(C)N1CCN(c2c(F)cccc2[C@@H]2S[C@@H](CC(=O)N3CCC(N4CCc5ccccc5NC4=O)CC3)C(=O)N2CCc2ccccc2)CC1` [Compound 508] are < 1000 nM and < 1000 nM.
As to `CC(C)CCN1C(=O)[C@H](CC(=O)N2CCC(N3Cc4ccccc4NC3=O)CC2)SC1c1ccccn1` (stereo partly drawn) [Compound 176], the IC50 in test [1] is 1000 to 5000 nM. Moreover, in test [2], the Ki was < 1000 nM.
Take `CC(C)(C)N1CCN(c2c(F)cccc2C2S[C@@H](CC(=O)N3CCC(n4c(=O)[nH]c5ncccc54)CC3)C(=O)N2CCc2ccc(F)cc2)CC1` (stereo partly drawn) [Compound 505]: the IC50 in test [1] was < 1000 nM. For the same molecule, the Ki in test [2] is < 1000 nM.
Take `CC(C)CCN1C(=O)C(CC(=O)N2CCC(N3CCc4ccccc4NC3=O)CC2)SC1C1CCCCC1` (stereo not drawn) [Compound 37]: the IC50 in test [1] is < 1000 nM. The Ki in test [2] was < 1000 nM.
Turning to `CC(C)(C)CCN1C(=O)C(CC(=O)N2CCC(n3c(=O)[nH]c4ccccc43)CC2)S[C@H]1c1ccccc1N1CCC(O)CC1` (stereo partly drawn) [Compound 296], in test [1], the IC50 was < 1000 nM. In addition, in test [2], the Ki is < 1000 nM.
For the molecule `CN(C)[C@@H]1CCN(c2ccccc2C2SC(CC(=O)N3CCC(N4CCc5ccccc5NC4=O)CC3)C(=O)N2CCC(C)(C)C)C1` (stereo partly drawn) [Compound 405], in test [1], the IC50 lay within 1000 to 5000 nM. In addition, the Ki in test [2] was < 1000 nM.
For `CC(C)(C)CCN1C(=O)[C@H](CC(=O)N2CCC(N3CCc4ccccc4NC3=O)CC2)SC1c1cccc(F)c1N1CC[C@@H](O)C1` (stereo partly drawn) [Compound 487], the IC50 in test [1] is < 1000 nM. For the same molecule, the Ki in test [2] is < 1000 nM.
For the molecule `CN1CCN(c2cccc(F)c2C2SC(CC(=O)N3CCC(n4c(=O)[nH]c5ncccc54)CC3)C(=O)N2CCC(C)(C)C)CC1` (stereo not drawn) [Compound 350], in test [1], the 50% inhibitory concentration (IC50) was < 1000 nM. Further, the Ki in test [2] is < 1000 nM.
For the molecule `CC(C)(C)CCN1C(=O)[C@H](CC(=O)N2CCC(N3CCc4ccccc4NC3=O)CC2)SC1c1cccc(F)c1N1CC[C@H](O)C1` (stereo partly drawn) [Compound 485], the IC50 in test [1] was in the range of 1000 to 5000 nM. The Ki in test [2] is < 1000 nM.
On to `O=C(CC1SC(c2ccccc2)N(CC2CCCCC2)C1=O)N1CCC(N2CCc3ccccc3NC2=O)CC1` (stereo not drawn) [Compound 147], for which, in test [1], the IC50 is < 1000 nM. The Ki in test [2] is < 1000 nM.
For the molecule `CN1CCN(c2ccccc2C2SC(CC(=O)N3CCC4(CC3)CNC(=O)c3ccccc3O4)C(=O)N2CCC(C)(C)C)CC1` (stereo not drawn) [Compound 330], the IC50 in test [1] was in the range of 1000 to 5000 nM. Further, the Ki in test [2] is < 1000 nM.
The corresponding values for `CC(C)CCN1C(=O)[C@H](CC(=O)N2CCC(N3Cc4ccccc4NC3=O)CC2)SC1c1ccccn1` (stereo partly drawn) [Compound 148] are 1000 to 5000 nM and < 1000 nM.
In the same order, the values of `CC(C)OCCN1C(=O)[C@H](CC(=O)N2CCC(n3c(=O)[nH]c4ncccc43)CC2)SC1c1cccc(F)c1N1CCN(C(C)(C)C)CC1` (stereo partly drawn) [Compound 531] are < 1000 nM and < 1000 nM.
With `CN(C)c1ccccc1C1SC(CC(=O)N2CCC(N3Cc4ccccc4NC3=O)CC2)C(=O)N1CCC(C)(C)C` (stereo not drawn) [Compound 211], in test [1], the IC50 was in the range of 1000 to 5000 nM. Further, the Ki in test [2] was < 1000 nM.
In the case of `CCN1CCC2(CC1)SC(CC(=O)N1CCC(N3CCc4ccccc4NC3=O)CC1)C(=O)N2CCC(C)(C)C` (stereo not drawn) [Compound 288], the IC50 in test [1] is < 1000 nM. Besides, in test [2], the Ki is < 1000 nM.
`CC(C)(C)CCN1C(=O)C(CC(=O)N2CCC(N3CCc4ccccc4NC3=O)CC2)SC1c1ccccc1N1CCC(O)CC1` (stereo not drawn) [Compound 150]: the IC50 in test [1] is < 1000 nM. In addition, in test [2], the Ki is < 1000 nM.
`CC(C)N1CCN(c2c(F)cccc2C2SC(CC(=O)N3CCC(n4c(=O)[nH]c5ncccc54)CC3)C(=O)N2CCC(C)(C)C)CC1` (stereo not drawn) [Compound 341]: in test [1], the IC50 is < 1000 nM. In test [2], the Ki was < 1000 nM.
For the molecule `CC(C)(C)N1CCN(c2c(F)cccc2C2S[C@@H](CC(=O)N3CCC(n4c(=O)[nH]c5ncccc54)CC3)C(=O)N2CCc2ccccc2)CC1` (stereo partly drawn) [Compound 509], the IC50 in test [1] was < 1000 nM. In addition, the Ki in test [2] is < 1000 nM.
Turning to `COc1ccccc1C1SC(CC(=O)N2CCC(n3cc(-c4ccccc4)[nH]c3=O)CC2)C(=O)N1CCC(C)C` (stereo not drawn) [Compound 64], in test [1], the IC50 was 1000 to 5000 nM. Further, in test [2], the Ki was < 1000 nM.
In the same order, the values of `O=C(CC1SC(c2ccccc2)N(C2CC2)C1=O)N1CCC(N2Cc3ccccc3NC2=O)CC1` (stereo not drawn) [Compound 230] are > 5000 nM and 1000 to 5000 nM.
The corresponding values for `CC(C)CN1C(=O)[C@H](CC(=O)N2CCC(n3c(=O)[nH]c4ncccc43)CC2)S[C@H]1c1cccc(F)c1N1CCN(C(C)(C)C)CC1` [Compound 496] are < 1000 nM and < 1000 nM.
The corresponding values for `Cc1cc(C2SC(CC(=O)N3CCC(N4CCc5ccccc5NC4=O)CC3)C(=O)N2CC2CCCCC2)cc2cn[nH]c12` (stereo not drawn) [Compound 20] are < 1000 nM and < 1000 nM.
`CC(C)(C)CCN1C(=O)[C@H](CC(=O)N2CCC(N3CCc4ccccc4NC3=O)CC2)SC1c1cc(F)cc(F)c1N1CCN(C(C)(C)C)CC1` (stereo partly drawn) [Compound 478, (5S)-2-(2-(4-tert-Butylpiperazin-1-yl)-3,5-difluorophenyl)-3-(3,3-dimethylbutyl)-5-(2-oxo-2-(4-(2-oxo-4,5-dihydro-1H-benzo[d][1,3]diazepin-3(2H)-yl)piperidin-1-yl)ethyl)thiazolidin-4-one]: in test [1], the IC50 is < 1000 nM. For the same molecule, the inhibition constant Ki in test [2] is < 1000 nM.
As for `CC(C)(C)CCN1C(=O)C(CC(=O)N2CCC(N3CCc4ccccc4NC3=O)CC2)SC1c1ccccc1F` (stereo not drawn) [Compound 244], in test [1], the IC50 is < 1000 nM. The Ki in test [2] is < 1000 nM.
Regarding `CC(C)(C)CCN1C(=O)[C@H](CC(=O)N2CCC(n3c(=O)[nH]c4ncccc43)CC2)SC1c1ccccc1C1CCNCC1` (stereo partly drawn) [Compound 528], in test [1], the IC50 was < 1000 nM. For the same molecule, in test [2], the Ki was < 1000 nM.
For the molecule `CC(C)(C)CCN1C(=O)[C@H](CC(=O)N2CCC(N3CCc4ccccc4NC3=O)CC2)SC1c1cnc(C2CCN(C(=O)OC(C)(C)C)CC2)s1` (stereo partly drawn) [Compound 492, tert-Butyl 4-(5-((5S)-3-(3,3-dimethylbutyl)-4-oxo-5-(2-oxo-2-(4-(2-oxo-4,5-dihydro-1H-benzo[d][1,3]diazepin-3(2H)-yl)piperidin-1-yl)ethyl)thiazolidin-2-yl)thiazol-2-yl)piperidine-1-carboxylate], the IC50 in test [1] lay within 1000 to 5000 nM. Moreover, the Ki in test [2] was < 1000 nM.
The corresponding values for `CC(C)(C)N1CCN(c2c(F)cccc2[C@H]2S[C@@H](CC(=O)N3CCC(N4CCc5ccccc5NC4=O)CC3)C(=O)N2CCc2ccc(F)cc2)CC1` [Compound 503] are < 1000 nM and < 1000 nM.
The corresponding values for `CC(C)CCN1C(=O)C(CC(=O)N2CCC(N3Cc4ccccc4NC3=O)CC2)SC1c1cccc(F)c1` (stereo not drawn) [Compound 67] are < 1000 nM and < 1000 nM.
In the same order, the values of `CC(C)(C)CCN1C(=O)C(CC(=O)N2CCC(n3c(=O)[nH]c4ccccc43)CC2)SC1c1ccccc1-n1cccn1` (stereo not drawn) [Compound 297] are < 1000 nM and < 1000 nM.
On to `CC(C)CCN1C(=O)C(CC(=O)N2CCC(N3CCc4ccccc4NC3=O)CC2)SC1c1ccccc1` (stereo not drawn) [Compound 78], for which the IC50 in test [1] is < 1000 nM. Further, in test [2], the Ki is < 1000 nM.
In the case of `CC(C)CCN1C(=O)C(CC(=O)N2CCC(N3Cc4ccccc4NC3=O)CC2)SC1c1ccccn1` (stereo not drawn) [Compound 266], the IC50 in test [1] is < 1000 nM. In addition, the Ki in test [2] is < 1000 nM.
Turning to `CC(C)CCN1C(=O)C(CC(=O)N2CCC(N3CCc4ccccc4NC3=O)CC2)SC1c1ccccc1-n1ccnc1` (stereo not drawn) [Compound 260], in test [1], the IC50 is < 1000 nM. In test [2], the Ki was < 1000 nM.
`C#CCN1C(=O)C(CC(=O)N2CCC(N3Cc4ccccc4NC3=O)CC2)SC1c1ccccc1` (stereo not drawn) [Compound 116]: the IC50 in test [1] is 1000 to 5000 nM. The Ki in test [2] is < 1000 nM.
In the case of `CCN1CCN(c2c(F)cccc2C2SC(CC(=O)N3CCC(N4CCc5ccccc5NC4=O)CC3)C(=O)N2CCC(C)(C)C)CC1` (stereo not drawn) [Compound 345], in test [1], the IC50 was < 1000 nM. Also, in test [2], the Ki is < 1000 nM.
Turning to `CC(C)OCCN1C(=O)[C@H](CC(=O)N2CCC(N3CCc4ccccc4NC3=O)CC2)SC1c1cccc(F)c1N1CCN(C(C)(C)C)CC1` (stereo partly drawn) [Compound 529], the 50% inhibitory concentration (IC50) in test [1] was < 1000 nM. In test [2], the Ki was < 1000 nM.
On to `CNC1CCN(c2c(F)cccc2[C@H]2S[C@@H](CC(=O)N3CCC(n4c(=O)[nH]c5ncccc54)CC3)C(=O)N2CCC(C)(C)C)C1` (stereo partly drawn) [Compound 458], for which the IC50 in test [1] is < 1000 nM. In addition, in test [2], the Ki is < 1000 nM.
In the case of `CC(C)CCN1C(=O)[C@H](CC(=O)N2CCC(N3CCc4ccccc4NC3=O)CC2)SC1c1cccc(F)c1N1CCN(C(C)(C)C)CC1` (stereo partly drawn) [Compound 544], the IC50 in test [1] is < 1000 nM. Also, the Ki in test [2] was < 1000 nM.
